The target in one experiment is LRRK2 wild type enzyme (Homo sapiens, UniProt Q5S007). The experiment is described as follows: Biochemical Assay: LRRK2 TR-FRET (LanthaScreen) kinase assay with LRRKtide substrate. To be noted: LRRK2 Inhibition, Table 8. In short, it runs like this: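 Human wild-type LRRK2 (3 nM) preincubated 15 min with compound (11-point, 3-fold, top 10 μM), then reacted 120 min at 23 °C with 400 nM LRRKtide and 25 μM ATP, pH 8.0. Stopped with EDTA; Tb-anti-pLRRKtide TR-FRET read after 30 min.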
Sequence of LRRK2 wild type enzyme (Q5S007 whole entry): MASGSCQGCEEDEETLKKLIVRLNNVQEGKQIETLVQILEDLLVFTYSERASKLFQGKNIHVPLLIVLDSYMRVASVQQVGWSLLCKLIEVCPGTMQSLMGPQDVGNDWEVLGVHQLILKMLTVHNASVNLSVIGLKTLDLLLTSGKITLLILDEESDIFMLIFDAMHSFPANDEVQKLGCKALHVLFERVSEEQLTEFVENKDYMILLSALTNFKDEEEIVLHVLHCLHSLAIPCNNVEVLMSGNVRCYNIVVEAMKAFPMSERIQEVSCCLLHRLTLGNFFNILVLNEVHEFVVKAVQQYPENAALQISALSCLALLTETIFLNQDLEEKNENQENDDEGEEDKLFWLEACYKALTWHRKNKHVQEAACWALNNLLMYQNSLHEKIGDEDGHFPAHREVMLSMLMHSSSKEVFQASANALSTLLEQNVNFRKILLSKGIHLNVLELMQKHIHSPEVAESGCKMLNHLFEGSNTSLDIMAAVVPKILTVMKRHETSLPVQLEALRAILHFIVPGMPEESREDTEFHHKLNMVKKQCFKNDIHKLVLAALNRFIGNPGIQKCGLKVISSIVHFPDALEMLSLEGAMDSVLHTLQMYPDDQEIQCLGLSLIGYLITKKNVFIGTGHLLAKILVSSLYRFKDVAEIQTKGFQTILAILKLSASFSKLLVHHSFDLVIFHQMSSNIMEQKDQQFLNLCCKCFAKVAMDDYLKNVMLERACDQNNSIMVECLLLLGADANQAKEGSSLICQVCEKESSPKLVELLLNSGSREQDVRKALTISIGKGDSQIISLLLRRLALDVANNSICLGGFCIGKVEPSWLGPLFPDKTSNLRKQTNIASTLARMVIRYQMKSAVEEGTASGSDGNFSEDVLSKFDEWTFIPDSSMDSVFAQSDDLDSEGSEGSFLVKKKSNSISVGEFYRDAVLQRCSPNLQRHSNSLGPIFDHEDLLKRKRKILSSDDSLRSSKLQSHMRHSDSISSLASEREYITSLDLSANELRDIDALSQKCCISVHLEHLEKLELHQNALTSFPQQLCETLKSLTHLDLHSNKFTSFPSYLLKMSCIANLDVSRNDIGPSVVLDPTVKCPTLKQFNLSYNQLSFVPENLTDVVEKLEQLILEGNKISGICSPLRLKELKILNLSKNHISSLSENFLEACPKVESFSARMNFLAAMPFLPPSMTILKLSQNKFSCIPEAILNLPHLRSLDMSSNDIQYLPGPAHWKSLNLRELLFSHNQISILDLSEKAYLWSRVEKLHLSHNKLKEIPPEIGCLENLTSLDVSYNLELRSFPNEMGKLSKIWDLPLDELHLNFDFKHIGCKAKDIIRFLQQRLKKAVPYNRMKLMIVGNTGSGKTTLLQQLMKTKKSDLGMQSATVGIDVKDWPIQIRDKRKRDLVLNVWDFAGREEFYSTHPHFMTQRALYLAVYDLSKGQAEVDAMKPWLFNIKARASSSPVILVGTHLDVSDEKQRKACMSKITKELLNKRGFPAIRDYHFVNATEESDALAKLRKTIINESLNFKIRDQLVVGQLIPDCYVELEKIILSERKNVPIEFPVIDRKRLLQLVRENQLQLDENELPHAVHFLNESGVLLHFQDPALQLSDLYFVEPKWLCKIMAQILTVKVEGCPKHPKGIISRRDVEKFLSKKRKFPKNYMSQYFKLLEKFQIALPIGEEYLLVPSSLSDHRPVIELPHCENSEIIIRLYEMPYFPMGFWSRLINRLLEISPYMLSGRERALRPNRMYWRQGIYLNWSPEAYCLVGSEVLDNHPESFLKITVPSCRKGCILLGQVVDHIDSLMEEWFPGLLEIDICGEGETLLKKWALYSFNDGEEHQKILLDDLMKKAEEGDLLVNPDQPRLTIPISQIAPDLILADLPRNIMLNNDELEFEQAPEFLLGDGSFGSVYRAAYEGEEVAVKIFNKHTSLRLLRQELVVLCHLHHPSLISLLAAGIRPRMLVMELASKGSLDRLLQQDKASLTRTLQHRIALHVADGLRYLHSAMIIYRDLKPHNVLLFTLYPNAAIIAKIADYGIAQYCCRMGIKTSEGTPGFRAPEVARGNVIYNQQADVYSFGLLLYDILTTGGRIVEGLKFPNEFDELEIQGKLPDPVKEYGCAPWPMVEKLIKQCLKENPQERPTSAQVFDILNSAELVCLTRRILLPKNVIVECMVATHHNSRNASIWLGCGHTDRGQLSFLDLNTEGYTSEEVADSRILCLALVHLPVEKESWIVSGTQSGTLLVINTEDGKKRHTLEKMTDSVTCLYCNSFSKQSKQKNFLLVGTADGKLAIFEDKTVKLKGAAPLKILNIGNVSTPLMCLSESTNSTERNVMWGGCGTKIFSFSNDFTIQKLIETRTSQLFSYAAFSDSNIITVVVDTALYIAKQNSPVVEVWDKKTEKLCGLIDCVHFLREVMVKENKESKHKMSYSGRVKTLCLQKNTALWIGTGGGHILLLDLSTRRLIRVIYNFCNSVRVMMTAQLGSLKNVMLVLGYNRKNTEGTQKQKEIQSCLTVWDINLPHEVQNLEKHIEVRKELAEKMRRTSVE
On the technique in general: TR-FRET usually uses a lanthanide donor and a delayed reading to cut background.

The target of experiment [1] is T1, wild type LRRK2 overexpressed in recombinant HEK-293T cells (Homo sapiens, UniProt Q5S007).
T1 construct: host or cells: HEK293T (transient transfection with pCMV-LRRK2 WT plasmid)
T1 sequence (Q5S007 whole entry): as above
The experiment is described as follows: pS935 LRRK2 Cell Assay (HTRF, phospho-LRRK2 Ser935). To be noted: LRRK2 Inhibition, Table 8, 2 hours compound incubation. In kind it is cell-based. Put shortly: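 HEK-293T cells transiently transfected with wild-type LRRK2 for 24 h, plated overnight, then treated 2 h at 37° C with compound (top 10 μM, 3-fold, 9 doses, duplicates, 0.2% DMSO). Lysates probed overnight at 23° C by sandwich HTRF for pSer935; 665/615 nm ratio read.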

Regarding `C[C@@H]1C[C@H](n2c([C@@H]3CN(CC4CC4)S(=O)(=O)C3)nc3cnc4ccc(C#N)cc4c32)CCO1` [Compound 1, 2-[(4S)-2-(cyclopropylmethyl)-1,1-dioxo-1X^6,2-thiazolidin-4-yl]-1-[(2R,4R)-2-methyloxan-4-yl]-1H-imidazo[4,5-c]quinoline-8-carbonitrile], the concentration for half-maximal inhibition (IC50) at LRRK2 wild type enzyme turned out to be 2.45 nM; in experiment [1] it was 168 nM.

Take `C[C@@H]1C[C@H](n2c(CC(=O)N[C@H]3CCCc4cccnc43)nc3cnc4ccc(C#N)cc4c32)CCO1` [Compound 358, N-[(S)-5,6,7,8-tetrahydro-8-quinolyl]{3-[(2R,4R)-2-methyltetrahydro-2H-pyran-4-yl]-12-cyano-3,5,8-triazatricyclo[7.4.0.0^2,6]trideca-1(9),2(6),4,7,10,12-hexaen-4-yl}acetamide]: the concentration for half-maximal inhibition (IC50) was determined as 0.602 nM against LRRK2 wild type enzyme and 24.5 nM in experiment [1].

On to `C[C@@H]1C[C@H](n2c(CC(=O)NCC3CCO3)nc3cnc4ccc(C#N)cc4c32)CCO1` (stereo partly drawn) [Compound 149, 2-{8-cyano-1-[(2R,4R)-2-methyloxan-4-yl]-1H-imidazo[4,5-c]quinolin-2-yl}-N-[(oxetan-2-yl)methyl]acetamide], for which the concentration for half-maximal inhibition (IC50) at LRRK2 wild type enzyme was 0.715 nM; in experiment [1], 74.3 nM.

Turning to `C[C@@H]1C[C@H](n2c(CC(=O)NCc3cnn(C)c3)nc3cnc4ccc(C#N)cc4c32)CCO1` [Compound 87, 2-{8-cyano-1-[(2R,4R)-2-methyloxan-4-yl]-1H-imidazo[4,5-c]quinolin-2-yl}-N-[(1-methyl-1H-pyrazol-4-yl)methyl]acetamide], the IC50 against LRRK2 wild type enzyme was determined as 0.473 nM; in experiment [1], 27.4 nM.

As for `COc1c(NC(=O)Cc2nc3cnc4ccc(C#N)cc4c3n2[C@@H]2CCO[C@H](C)C2)cnn1C` [Compound 224, N-(5-methoxy-1-methyl-4-pyrazolyl){3-[(2R,4R)-2-methyltetrahydro-2H-pyran-4-yl]-12-cyano-3,5,8-triazatricyclo[7.4.0.0^2,6]trideca-1,4,6,8,10,12-hexaen-4-yl}acetamide], the IC50 worked out at 1.42 nM at LRRK2 wild type enzyme and 87.9 nM in experiment [1].

Take `Cc1ccc2ncc3nc(CC(=O)NC4CC4)n([C@@H]4CCO[C@H](C)C4)c3c2c1` [Compound 191, N-cyclopropyl-2-{8-methyl-1-[(2R,4R)-2-methyloxan-4-yl]-1H-imidazo[4,5-c]quinolin-2-yl}acetamide]: the IC50 was found to be 0.961 nM against LRRK2 wild type enzyme and 65.6 nM in experiment [1].

Regarding `C[C@@H]1C[C@H](n2c(CC(=O)NC[C@@H]3CCOC3)nc3cnc4ccc(C#N)cc4c32)CCO1` [Compound 173, 2-{8-cyano-1-[(2R,4R)-2-methyloxan-4-yl]-1H-imidazo[4,5-c]quinolin-2-yl}-N-{[(3S)-oxolan-3-yl]methyl}acetamide], the half-inhibitory concentration (IC50) at LRRK2 wild type enzyme amounted to 0.413 nM; in experiment [1] it was 38.1 nM.

For `C[C@@H]1C[C@H](n2c(CC(=O)NCc3ccccn3)nc3cnc4ccc(C#N)cc4c32)CCO1` [Compound 86, 2-{8-cyano-1-[(2R,4R)-2-methyloxan-4-yl]-1H-imidazo[4,5-c]quinolin-2-yl}-N-[(pyridin-2-yl)methyl]acetamide], the figures for the concentration for half-maximal inhibition (IC50) (on LRRK2 wild type enzyme; in experiment [1]) were 0.422 nM and 7.12 nM, respectively.

With `C[C@@H]1C[C@H](n2c(CC(=O)NC3(C(F)(F)F)CC3)nc3cnc4ccc(C#N)cc4c32)CCO1` [Compound 287, N-1-(trifluoromethyl)cyclopropyl{3-[(2R,4R)-2-methyltetrahydro-2H-pyran-4-yl]-12-cyano-3,5,8-triazatricyclo[7.4.0.0^2,6]trideca-1,4,6,8,10,12-hexaen-4-yl}acetamide], the IC50 against LRRK2 wild type enzyme was determined as 1.61 nM; in experiment [1], 118 nM.

Take `C[C@@H]1C[C@H](n2c(C3CC(=O)N(C4CCOCC4)C3)nc3cnc4ccc(C#N)cc4c32)CCO1` (mixture of isomers) [Compound 64, 1-[(2R,4R)-2-methyloxan-4-yl]-2-[1-(oxan-4-yl)-5-oxopyrrolidin-3-yl]-1H-imidazo[4,5-c]quinoline-8-carbonitrile]: the IC50 worked out at 3.71 nM at LRRK2 wild type enzyme and 313 nM in experiment [1].

On to `C[C@@H]1C[C@H](n2c(CC(=O)Nc3cc(C(C)(C)F)no3)nc3cnc4ccc(C#N)cc4c32)CCO1` [Compound 341, N-[3-(1-fluoro-1-methylethyl)-5-isoxazolyl]{3-[(2R,4R)-2-methyltetrahydro-2H-pyran-4-yl]-12-cyano-3,5,8-triazatricyclo[7.4.0.0^2,6]trideca-1(9),2(6),4,7,10,12-hexaen-4-yl}acetamide], for which the IC50 at LRRK2 wild type enzyme is 0.423 nM; in experiment [1] it was 8.13 nM.

`C[C@@H]1C[C@H](n2c(CC(=O)NCC(F)(F)F)nc3cnc4ccc(C#N)cc4c32)CCO1` [Compound 186, 2-{8-cyano-1-[(2R,4R)-2-methyloxan-4-yl]-1H-imidazo[4,5-c]quinolin-2-yl}-N-(2,2,2-trifluoroethyl)acetamide]: the 50% inhibitory concentration (IC50) was found to be 0.556 nM against LRRK2 wild type enzyme and 43.9 nM in experiment [1].

Take `C[C@@H]1C[C@H](n2c(CC(=O)Nc3ccno3)nc3cnc4ccc(C#N)cc4c32)CCO1` [Compound 165, 2-{8-cyano-1-[(2R,4R)-2-methyloxan-4-yl]-1H-imidazo[4,5-c]quinolin-2-yl}-N-(1,2-oxazol-5-yl)acetamide]: the half-inhibitory concentration (IC50) was 0.789 nM against LRRK2 wild type enzyme and 10.6 nM in experiment [1].

Consider `COc1ccc(NC(=O)Cc2nc3cnc4ccc(C#N)cc4c3n2[C@@H]2CCO[C@H](C)C2)cn1` [Compound 298, N-(6-methoxy-3-pyridyl){3-[(2R,4R)-2-methyltetrahydro-2H-pyran-4-yl]-12-cyano-3,5,8-triazatricyclo[7.4.0.0^2,6]trideca-1,4,6,8,10,12-hexaen-4-yl}acetamide], for which the 50% inhibitory concentration (IC50) on LRRK2 wild type enzyme is 0.346 nM; in experiment [1], 5.52 nM.

Consider `C[C@@H]1C[C@H](n2c(CC(=O)Nc3cncn(C)c3=O)nc3cnc4ccc(C#N)cc4c32)CCO1` [Compound 223, N-(1-methyl-6-oxo-1,6-dihydro-5-pyrimidinyl){3-[(2R,4R)-2-methyltetahydro-2H-pyran-4-yl]-12-cyano-3,5,8-triazatricyclo[7.4.0.0^2,6]trideca-1,4,6,8,10,12-hexaen-4-yl}acetamide], for which the figures for the IC50 (on LRRK2 wild type enzyme; in experiment [1]) were 0.316 nM and 10.8 nM, respectively.

Take `C[C@@H]1C[C@H](n2c(C3CN(S(C)(=O)=O)C3)nc3cnc4ccc(C#N)cc4c32)CCO1` [Compound 67, 2-(1-methanesulfonylazetidin-3-yl)-1-[(2R,4R)-2-methyloxan-4-yl]-1H-imidazo[4,5-c]quinoline-8-carbonitrile]: the IC50 worked out at 3.03 nM against LRRK2 wild type enzyme and 500 nM in experiment [1].

On to `C[C@@H]1C[C@H](n2c(CC(=O)Nc3ncccn3)nc3cnc4ccc(C#N)cc4c32)CCO1` [Compound 178, 2-{8-cyano-1-[(2R,4R)-2-methyloxan-4-yl]-1H-imidazo[4,5-c]quinolin-2-yl}-N-(pyrimidin-2-yl)acetamide], for which the half-maximal inhibitory concentration (IC50) was 0.34 nM against LRRK2 wild type enzyme and 3.92 nM in experiment [1].

`C[C@@H]1C[C@H](n2c(CC(=O)Nc3cnccn3)nc3cnc4ccc(C#N)cc4c32)CCO1` [Compound 337, N-2-pyrazinyl{3-[(2R,4R)-2-methyltetrahydro-2H-pyran-4-yl]-12-cyano-3,5,8-triazatricyclo[7.4.0.0^2,6]trideca-1,4,6,8,10,12-hexaen-4-yl}acetamide]: the figures for the 50% inhibitory concentration (IC50) (at LRRK2 wild type enzyme; in experiment [1]) were 0.337 nM and 1.61 nM, respectively.

Regarding `C[C@@H]1C[C@H](n2c(CC(=O)N[C@H](C)c3ccccn3)nc3cnc4ccc(C#N)cc4c32)CCO1` [Compound 190, 2-{8-cyano-1-[(2R,4R)-2-methyloxan-4-yl]-1H-imidazo[4,5-c]quinolin-2-yl}-N-[(1R)-1-(pyridin-2-yl)ethyl]acetamide], the IC50 against LRRK2 wild type enzyme stood at 0.696 nM; in experiment [1], 18.7 nM.

Take `C[C@@H]1C[C@H](n2c(CNC(=O)C3CC3)nc3cnc4ccc(C#N)cc4c32)CCO1` [Compound 17, N-({8-cyano-1-[(2R,4R)-2-methyloxan-4-yl]-1H-imidazo[4,5-c]quinolin-2-yl}methyl)cyclopropanecarboxamide]: the 50% inhibitory concentration (IC50) at LRRK2 wild type enzyme is 6.61 nM; in experiment [1] it was 477 nM.

On to `C[C@@H]1C[C@H](n2c(CC(=O)Nc3nccs3)nc3cnc4ccc(C#N)cc4c32)CCO1` [Compound 335, N-(1,3-thiazol-2-yl){3-[(2R,4R)-2-methyltetrahydro-2H-pyran-4-yl]-12-cyano-3,5,8-triazatricyclo[7.4.0.0^2,6]trideca-1(9),2(6),4,7,10,12-hexaen-4-yl}acetamide], for which the results for the IC50 (on LRRK2 wild type enzyme; in experiment [1]) were 0.433 nM and 4.06 nM, respectively.

As for `CC(C(=O)NCC1CC1)c1nc2cnc3ccc(C#N)cc3c2n1[C@@H]1CCO[C@H](C)C1` (stereo partly drawn) [Compound 369, N-cyclopropylmethyl2-{3-[(2R,4R)-2-methyltetrahydro-2H-pyran-4-yl]-12-cyano-3,5,8-triazatricyclo[7.4.0.0^2,6]trideca-1(13),2(6),4,7,9,11-hexaen-4-yl}propionamide], the IC50 against LRRK2 wild type enzyme turned out to be 13.8 nM; in experiment [1], 801 nM.

`C[C@@H]1C[C@H](n2c(CC(=O)NC3(C)CCC3)nc3cnc4ccc(C#N)cc4c32)CCO1` [Compound 303, N-1-methylcyclobutyl{3-[(2R,4R)-2-methyltetrahydro-2H-pyran-4-yl]-12-cyano-3,5,8-triazatricyclo[7.4.0.0^2,6]trideca-1(13),2(6),4,7,9,11-hexaen-4-yl}acetamide]: the half-maximal inhibitory concentration (IC50) against LRRK2 wild type enzyme was determined as 1.29 nM; in experiment [1], 47 nM.

Turning to `C[C@@H]1C[C@H](n2c(CC(=O)N[C@H]3C[C@@H](OCc4ccn(C)n4)C3)nc3cnc4ccc(C#N)cc4c32)CCO1` [Compound 367, N-{(1s,3s)-3-[(1-methyl-3-pyrazolyl)methoxy]cyclobutyl}{3-[(2R,4R)-2-methyltetrahydro-2H-pyran-4-yl]-12-cyano-3,5,8-triazatricyclo[7.4.0.0^2,6]trideca-1,4,6,8,10,12-hexaen-4-yl}acetamide], the half-maximal inhibitory concentration (IC50) against LRRK2 wild type enzyme came to 0.597 nM; in experiment [1], 94.8 nM.

By IC50 is commonly meant the concentration that gives 50% inhibition.

The values above are taken from patent US20250270209A1 (INTERLINE THERAPEUTICS, INC., priority 2022, published 2025).
